SMILES strings stand for the structures. Some results are limits rather than exact numbers.

Consider 25 compounds from patent publication US8569295B2, “Bicyclic urea compounds” (Merck Patent GmbH, priority 2009, dated 2013).

The target in this assay is T1, RON kinase (Homo sapiens, UniProt Q04912).
T1 construct: purchased Caliper Life Sciences
T1 sequence (Q04912 25-1400): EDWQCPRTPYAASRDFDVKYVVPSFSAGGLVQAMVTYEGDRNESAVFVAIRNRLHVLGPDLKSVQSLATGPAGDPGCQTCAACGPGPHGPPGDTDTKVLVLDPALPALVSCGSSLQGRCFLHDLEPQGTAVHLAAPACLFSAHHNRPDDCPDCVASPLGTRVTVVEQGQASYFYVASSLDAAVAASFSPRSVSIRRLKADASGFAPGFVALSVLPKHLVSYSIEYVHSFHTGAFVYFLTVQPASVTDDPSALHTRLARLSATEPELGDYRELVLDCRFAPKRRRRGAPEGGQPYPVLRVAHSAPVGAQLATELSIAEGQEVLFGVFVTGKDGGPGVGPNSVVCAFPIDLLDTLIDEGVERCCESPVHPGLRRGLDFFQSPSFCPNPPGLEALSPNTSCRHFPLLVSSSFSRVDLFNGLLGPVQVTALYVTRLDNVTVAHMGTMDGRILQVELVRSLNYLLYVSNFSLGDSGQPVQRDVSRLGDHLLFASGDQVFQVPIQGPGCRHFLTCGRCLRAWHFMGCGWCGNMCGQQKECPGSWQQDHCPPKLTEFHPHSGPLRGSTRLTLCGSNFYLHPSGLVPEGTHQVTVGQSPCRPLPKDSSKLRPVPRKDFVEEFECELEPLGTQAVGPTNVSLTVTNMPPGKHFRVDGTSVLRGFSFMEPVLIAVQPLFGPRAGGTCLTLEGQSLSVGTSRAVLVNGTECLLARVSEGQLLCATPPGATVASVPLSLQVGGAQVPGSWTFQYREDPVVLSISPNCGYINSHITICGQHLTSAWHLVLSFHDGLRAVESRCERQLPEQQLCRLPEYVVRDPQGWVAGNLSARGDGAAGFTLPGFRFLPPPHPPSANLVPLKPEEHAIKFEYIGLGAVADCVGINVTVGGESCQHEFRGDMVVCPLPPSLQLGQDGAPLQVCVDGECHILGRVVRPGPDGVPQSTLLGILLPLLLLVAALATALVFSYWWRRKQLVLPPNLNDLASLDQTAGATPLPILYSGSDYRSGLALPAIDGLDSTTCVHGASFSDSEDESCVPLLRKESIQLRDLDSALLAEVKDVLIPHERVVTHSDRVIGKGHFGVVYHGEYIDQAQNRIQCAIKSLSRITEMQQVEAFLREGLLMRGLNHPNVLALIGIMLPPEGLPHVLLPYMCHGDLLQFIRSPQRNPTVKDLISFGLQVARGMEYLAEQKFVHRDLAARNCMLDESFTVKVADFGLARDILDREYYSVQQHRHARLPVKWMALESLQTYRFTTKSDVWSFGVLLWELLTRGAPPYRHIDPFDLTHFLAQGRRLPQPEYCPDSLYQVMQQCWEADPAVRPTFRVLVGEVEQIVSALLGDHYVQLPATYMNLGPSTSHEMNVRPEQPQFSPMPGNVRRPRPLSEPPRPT
Put plainly: RON kinase biochemical mobility shift assay (Caliper Desktop Profiler). As to conditions: RON kinase inhibition. As for the experimental part: The Aurora assays described here are performed on two Caliper Life Sciences systems: the LC3000 and the Desktop Profiler. The RON kinase assays are performed on the Desktop Profiler only. These provide data on enzyme activity via measurement of the relative amounts of phosphorylated or unphosphorylated fluorescently labelled substrate peptide at the end of an enzymatic reaction. These different states of peptide are resolved by applying a potential difference across the sample. The presence of the charged phosphate group on the product (as opposed to the substrate) causes a different peptide mobility between the two peptides. This is visualized by excitation of the fluorescent label on the substrate and product peptides and represented as peaks within the analysis software.
The Desktop Profiler utilizes the same priniciple as the LC3000 for calculating percentage conversion of a substrate to product. Caliper Life Sciences provides proprietary flash frozen pre-made 384 well plates containing selected kinases. Each column in the 384 well plate contains a particular selected kinase. A second plate, the ‘substrate plate’ contains a mix of fluorescently labeled peptide substrate and ATP. These are arranged in columns so that transfer for substrate plate to enzyme plate provides the correct enzyme with the correct substrate/ATP concentration. Compounds are added to a thawed enzyme plate in the desired format, in single concentrations. Reactions are initiated by transfer of the substrate/ATP mix from the substrate plate. The enzyme plate is incubated for 90 minutes at 25 C. The reaction is stopped by addition of 70 ul of Stop Buffer (100 mM HEPES pH 7.5, 0.015% Brij-35, 10 mM EDTA (Sigma, E7889)).
Reading of the plate in the Profiler is identical to the LC3000, and the ratio between substrate and product peaks provides the activity of the enzyme in that well. This is best represented by a plate heat map which colors each well by percent inhibition as compared to positive and negative controls (no inhibitors and no ATP respectively).
What is called IC50 is the midpoint of a concentration-inhibition curve. In the case of `Cc1c(C(=O)Nc2ccc(Oc3ccnc4c3CNC(=O)N4)c(F)c2)c(=O)n(-c2ccccc2)n1CC(C)(C)O` [Example 74, N-{3-fluoro-4-[(2-oxo-1,2,3,4-tetrahydropyrido[2,3-d]pyrimidin-5-yl)oxy]phenyl}-1-(2-hydroxy-2-methylpropyl)-5-methyl-3-oxo-2-phenyl-2,3-dihydro-1H-pyrazole-4-carboxamide], the IC50 lay in the range of 100 to 1000 nM.
To `Cc1c(C(=O)Nc2ccc(Oc3ccnc4c3C3OCCCN3C(=O)N4)c(F)c2)c(=O)n(-c2ccccc2)n1CC(C)(C)O` (stereo not shown) [Example 75, N-{3-fluoro-4-[(6-oxo-3,4,7,11b-tetrahydro-2H,6H-pyrido[2′,3′:4,5]pyrimido[6,1-b][1,3]oxazin-11-yl)oxy]phenyl}-1-(2-hydroxy-2-methylpropyl)-5-methyl-3-oxo-2-phenyl-2,3-dihydro-1H-pyrazole-4-carboxamide] belongs 100 to 1000 nM; to `O=C(Nc1ccc(Oc2ccnc3c2C2OCCCN2C(=O)N3)c(F)c1)c1cccn(-c2ccc(F)cc2)c1=O` (stereo not shown) [Example 76, N-{3-fluoro-4-[(6-oxo-3,4,7,11b-tetrahydro-2H,6H-pyrido[2′,3′:4,5]pyrimido[6,1-b][1,3]oxazin-11-yl)oxy]phenyl}-1-(4-fluorophenyl)-2-oxo-1,2-dihydropyridine-3-carboxamide], 10 to 100 nM; to `CCN1Cc2c(Oc3ccc(NC(=O)c4cccn(-c5ccc(F)cc5)c4=O)cc3F)ccnc2NC1=O` [Example 84, N-{4-[(3-ethyl-2-oxo-1,2,3,4-tetrahydropyrido[2,3-d]pyrimidin-5-yl)oxy]-3-fluorophenyl}-1-(4-fluorophenyl)-2-oxo-1,2-dihydropyridine-3-carboxamide], less than 10 nM.
On to `O=C(Nc1ccc(Oc2ccnc3c2CN(CC(F)(F)F)C(=O)N3)c(F)c1)c1cccn(-c2ccc(F)cc2)c1=O` [Example 85, N-(3-fluoro-4-{[2-oxo-3-(2,2,2-trifluoroethyl)-1,2,3,4-tetrahydropyrido[2,3-d]pyrimidin-5-yl]oxy}phenyl)-1-(4-fluorophenyl)-2-oxo-1,2-dihydropyridine-3-carboxamide], for which the IC50 lay within 10 to 100 nM.
Consider `O=C1NCc2c(Oc3ccc(NC(=O)c4cccc(C(F)(F)F)c4F)cc3F)ccnc2N1` [Example 94, 2-fluoro-N-{3-fluoro-4-[(2-oxo-1,2,3,4-tetrahydropyrido[2,3-d]pyrimidin-5-yl)oxy]phenyl}-3-(trifluoromethyl)benzamide], for which the IC50 lay within 10 to 100 nM.
To `N#Cc1cccc(C(=O)Nc2ccc(Oc3ccnc4c3CNC(=O)N4)c(F)c2)c1` [Example 95, 3-cyano-N-{3-fluoro-4-[(2-oxo-1,2,3,4-tetrahydropyrido[2,3-d]pyrimidin-5-yl)oxy]phenyl}benzamide] belongs 10 to 100 nM; to `COc1cccc(C(=O)Nc2ccc(Oc3ccnc4c3CNC(=O)N4)c(F)c2)c1` [Example 96, N-{3-fluoro-4-[(2-oxo-1,2,3,4-tetrahydropyrido[2,3-d]pyrimidin-5-yl)oxy]phenyl}-3-methoxybenzamide], 10 to 100 nM.
Regarding `Cc1cccc(C(=O)Nc2ccc(Oc3ccnc4c3CNC(=O)N4)c(F)c2)c1` [Example 97, N-{3-fluoro-4-[(2-oxo-1,2,3,4-tetrahydropyrido[2,3-d]pyrimidin-5-yl)oxy]phenyl}-3-methylbenzamide], the concentration for half-maximal inhibition (IC50) was 10 to 100 nM.
Take `O=C1NCc2c(Oc3ccc(NC(=O)c4cccc(F)c4)cc3F)ccnc2N1` [Example 98, 3-fluoro-N-{3-fluoro-4-[(2-oxo-1,2,3,4-tetrahydropyrido[2,3-d]pyrimidin-5-yl)oxy]phenyl}benzamide]: the IC50 fell in the range of 10 to 100 nM.
With `O=C1NCc2c(Oc3ccc(NC(=O)c4ccc(Br)cc4)cc3F)ccnc2N1` [Example 99, 4-bromo-N-{3-fluoro-4-[(2-oxo-1,2,3,4-tetrahydropyrido[2,3-d]pyrimidin-5-yl)oxy]phenyl}benzamide], the IC50 is less than 10 nM.
Then `Cc1ccc(Nc2ccnc3c2CNC(=O)N3)cc1Br` [Example 194, 5-(3-Bromo-4-methyl-phenylamino)-3,4-dihydro-1H-pyrido[2,3-d]pyrimidin-2-one], with 100 to 1000 nM; and `O=C1NCc2c(Nc3ccc(OC(F)(F)F)c(Br)c3)ccnc2N1` [Example 195, 5-(3-Bromo-4-trifluoromethoxy-phenylamino)-3,4-dihydro-1H-pyrido[2,3-d]pyrimidin-2-one], with 100 to 1000 nM.
Then `CCN1Cc2c(Oc3ccc(NC(=O)Nc4cc([N+](=O)[O-])ccc4F)cc3F)ccnc2NC1=O` [Example 258, 1-[4-(3-Ethyl-2-oxo-1,2,3,4-tetrahydro-pyrido[2,3-d]pyrimidin-5-yloxy)-3-fluoro-phenyl]-3-(2-fluoro-5-nitro-phenyl)-urea], with 100 to 1000 nM.
To `CCN1Cc2c(Oc3ccc(NC(=O)Nc4ccc5c(c4)OCO5)cc3F)ccnc2NC1=O` [Example 263, 1-Benzo[1,3]dioxol-5-yl-3-[4-(3-ethyl-2-oxo-1,2,3,4-tetrahydro-pyrido[2,3-d]pyrimidin-5-yloxy)-3-fluoro-phenyl]-urea] belongs 10 to 100 nM; to `CCN1Cc2c(Oc3ccc(NC(=O)Nc4ccc(Cl)nc4)cc3F)ccnc2NC1=O` [Example 264, 1-(6-Chloro-pyridin-3-yl)-3-[4-(3-ethyl-2-oxo-1,2,3,4-tetrahydro-pyrido[2,3-d]pyrimidin-5-yloxy)-3-fluoro-phenyl]-urea], 100 to 1000 nM; to `CCN1Cc2c(Oc3ccc(NC(=O)Nc4c(-c5ccccc5)noc4C)cc3F)ccnc2NC1=O` [Example 266, 1-[4-(3-Ethyl-2-oxo-1,2,3,4-tetrahydro-pyrido[2,3-d]pyrimidin-5-yloxy)-3-fluoro-phenyl]-3-(5-methyl-3-phenyl-isoxazol-4-yl)-urea], 100 to 1000 nM.
For `CCN1Cc2c(Oc3ccc(NC(=O)Nc4cc(C)cs4)cc3F)ccnc2NC1=O` [Example 267, 1-[4-(3-Ethyl-2-oxo-1,2,3,4-tetrahydro-pyrido[2,3-d]pyrimidin-5-yloxy)-3-fluoro-phenyl]-3-(4-methyl-thiophen-2-yl)-urea], the IC50 was in the range of 10 to 100 nM.
Then `CCN1Cc2c(Oc3ccc(NC(=O)Nc4cc(C)oc4C(F)(F)F)cc3F)ccnc2NC1=O` [Example 268, 1-[4-(3-Ethyl-2-oxo-1,2,3,4-tetrahydro-pyrido[2,3-d]pyrimidin-5-yloxy)-3-fluoro-phenyl]-3-(5-methyl-2-trifluoromethyl-furan-3-yl)-urea], with 10 to 100 nM; and `O=C(Nc1cccc(F)c1)Nc1ccc(Oc2ccnc3c2CNC(=O)N3)c(F)c1` [Example 269, 1-[3-Fluoro-4-(2-oxo-1,2,3,4-tetrahydro-pyrido[2,3-d]pyrimidin-5-yloxy)-phenyl]-3-(3-fluoro-phenyl)-urea], with 10 to 100 nM.
In the case of `O=C(Nc1cccc(C(F)(F)F)c1)Nc1ccc(Oc2ccnc3c2CNC(=O)N3)c(F)c1` [Example 270, 1-[3-Fluoro-4-(2-oxo-1,2,3,4-tetrahydro-pyrido[2,3-d]pyrimidin-5-yloxy)-phenyl]-3-(3-trifluoromethyl-phenyl)-urea], the IC50 is 10 to 100 nM.
To `O=C(Nc1ccc([N+](=O)[O-])cc1)Nc1ccc(Oc2ccnc3c2CNC(=O)N3)c(F)c1` [Example 272, 1-[3-Fluoro-4-(2-oxo-1,2,3,4-tetrahydro-pyrido[2,3-d]pyrimidin-5-yloxy)-phenyl]-3-(4-nitro-phenyl)-urea] belongs 10 to 100 nM; to `CC(C)c1ccc(NC(=O)Nc2ccc(Oc3ccnc4c3CNC(=O)N4)c(F)c2)cc1` [Example 273, 1-[3-Fluoro-4-(2-oxo-1,2,3,4-tetrahydro-pyrido[2,3-d]pyrimidin-5-yloxy)-phenyl]-3-(4-isopropyl-phenyl)-urea], less than 10 nM.
Then `O=C(Nc1ccc(Oc2ccnc3c2CNC(=O)N3)c(F)c1)Nc1ccc(C(F)(F)F)cc1Cl` [Example 274, 1-(2-Chloro-4-trifluoromethyl-phenyl)-3-[3-fluoro-4-(2-oxo-1,2,3,4-tetrahydro-pyrido[2,3-d]pyrimidin-5-yloxy)-phenyl]-urea], with 100 to 1000 nM.
To `O=C1NCc2c(Oc3ccc(NC(=O)c4cccn(-c5ccc(F)cc5)c4=O)nc3)ccnc2N1` [Example 283, 1-(4-Fluoro-phenyl)-2-oxo-1,2-dihydro-pyridine-3-carboxylic acid [5-(2-oxo-1,2,3,4-tetrahydro-pyrido[2,3-d]pyrimidin-5-yloxy)-pyridin-2-yl]-amide] belongs 100 to 1000 nM.
